As usually defined, the AC50 is the midpoint of the concentration-response curve, whichever way the signal moves.

Calls of active or inactive are those of the source. How the calls were made is not given here.

The assay deals with S. cerevisiae expressing PfHSP40, growth rescue, plate reader. The experiment in a line: S cerevisiae expressing PfHSP40, growth rescue, cherry pick dose confirmatory, plate reader (AID 540271).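 Further: yeast growth read after three days of incubation at 30 °C.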
As for `CCCCCCCCCCOC(=O)Cn1c(COc2ccccc2)[n+](C)c2ccccc21`, the AC50 was > 12 µM (inactive).
The figure for `CCCCNC(=S)N/N=C1\CCCCc2ccccc21` is 10.3 µM.
Regarding `CCCCNc1c(-c2cccc(-c3ccc(OC)cc3)c2)nc2ccc(C)cn12`, the AC50 was 5.67 µM.
The figure for `Cc1onc(-c2c(Cl)cccc2Cl)c1C(=O)N/N=C(\N)COc1ccc(Cl)cc1` is 3.02 µM; for `Cc1cccc(NS(=O)(=O)c2ccc(-c3cnc(C4CC4)o3)cc2)c1C` it is 5.32 µM.
Regarding `CC(=O)C1=C(c2ccc(Br)cc2)C(=O)c2ccccc2C1=O`, the AC50 was 2.62 µM.
Consider `COc1cc(NC(=O)CSc2ccc(-c3ccccn3)nn2)cc(OC)c1`, for which the AC50 was 1.59 µM.
Next, `O=C(C1=C(Nc2ccccc2)c2ccccc2S(=O)(=O)N1)c1ccccc1`: 5.09 µM; `O=c1c2ccccc2nc(-c2ccc(-c3ccccc3)cc2)n1-c1ccncc1`: 6.21 µM.
As to `CCCCC(=O)NC(c1ccc(N(C)C)cc1)c1ccc2cccnc2c1O` (centres undefined), the AC50 is 1.65 µM.
The figure for `O=C1c2ccccc2NC(c2ccc(-c3ccc(F)cc3)o2)N1O` (centres undefined) is 8.42 µM.
Turning to `O=C(NOC(=O)c1ccccc1)c1ccccc1`, the AC50 is 2.11 µM.
The figure for `CCOC(=O)c1ccc(NC(=S)N(Cc2cccnc2)Cc2ccco2)cc1` is 6.54 µM; for `O=C1c2ccccc2NC(c2ccc(-c3ccc(C(F)(F)F)cc3)o2)N1O` (centres undefined) it is 2.4 µM.
Next, `Cc1ccc(CCNc2ncnc(Cl)c2N)cc1`: 4.48 µM; `COc1ccc2oc(=O)c(-c3csc(Nc4cccc(O)c4)n3)cc2c1`: 4.91 µM; `O=C1C(Nc2ccccc2)=C/C(=N/S(=O)(=O)c2cccs2)c2ccccc21`: 3.48 µM.
For the compound `Cc1csc(NC(=S)Nc2cccc(Cl)c2)n1`, the AC50 was 11.2 µM.
Next, `C=C(C)COc1ccc(-c2[nH]ncc2-c2ccc(Br)cc2)c(O)c1`: 4.66 µM; `O=C(Nc1ccccc1N1CCOCC1)c1cc2c(s1)CCCCC2`: 6.04 µM; `Cc1ccc(C)c(NS(=O)(=O)c2cc(C(=O)N3CCc4ccccc4C3)ccc2Cl)c1`: 6.77 µM.
The figure for `CCCCc1ccc(-n2c(Cc3cccs3)n[nH]c2=S)cc1` is 6.45 µM; for `CCOc1ccc(-n2c(O)c(/C=N/NC(=O)C3COc4ccccc4O3)c3ccccc3c2=O)cc1` (centres undefined) it is 4.11 µM; for `Cc1ccc(-c2nn(C(C)(C)C)c3ncnc(N)c23)cc1` it is 1.28 µM.

The values are drawn from PubChem BioAssay AID540271 (Broad Institute, 2011).
